Measurements published in patent US20230416268A1, “PYRIMIDINONE-CONTAINING 17-BETA-HYDROXYSTEROID DEHYDROGENASE TYPE 13 INHIBITORS” (ENANTA PHARMACEUTICALS, INC., priority 2022, published 2023).

What follows are compounds tested against Recombinant human 17β-HSD13 (Homo sapiens (Human), UniProt Q7Z5P4) (assay: 17β-HSD13 rapid-fire mass spectrometry assay (RF/MS assay)). Settings: HSD17B13 80 nM, LTB4 10 μM, NAD+ 0.5 mM, RT 3 h, RF/MS readout.
Format: biochemical
Procedure: 17β-HSD13 rapid-fire mass spectrometry assay (RF/MS assay). Recombinant human 17β-HSD13 was expressed and purified from sf9 cells at Charles River Labs (Saffron Walden, UK). […] The assays were quenched by adding 20 μL of 0.15% aqueous formic acid and the plates were frozen at −80° C. RF/MS analysis was performed at PureHoney Technologies (Billerica, MA) on a RapidFire RF300 system (Agilent Technologies, Inc.) coupled to an API 4000 triple quadrupole mass spectrometer (Sciex) equipped with Agilent RapidFire cartridge type A (C4). The mobile phase was 0.09% formic acid and 0.01% trifluoracetic acid in water (Buffer A) and 0.09% formic acid and 0.01% trifluoracetic acid in 80% aqueous acetonitrile (Buffer B). The RapidFire method conditions were the following: 250 ms aspirate, 3000 ms load/desalt, 4000 ms elute, and 500 ms re-equilibrate. RF-MS/MS was performed in negative polarity (−4500 V), the source temperature was 650° C., and gas 1 and gas 2 settings for nitrogen were set to 50. The curtain gas and collision gas were also nitrogen and were set to 20 and 12, respectively.
Data Analysis. 17β-HSD13 enzyme activity was measured as percent conversion of extracted ion counts and normalized to high and low controls to determine percent residual activity at various concentrations of test compounds. Data were fitted to normalized activity (variable slope) versus concentration fit in GraphPad Prism 7 to determine IC50. All experiments were run in duplicates.

Sequence of Recombinant human 17β-HSD13 (Q7Z5P4 20-300): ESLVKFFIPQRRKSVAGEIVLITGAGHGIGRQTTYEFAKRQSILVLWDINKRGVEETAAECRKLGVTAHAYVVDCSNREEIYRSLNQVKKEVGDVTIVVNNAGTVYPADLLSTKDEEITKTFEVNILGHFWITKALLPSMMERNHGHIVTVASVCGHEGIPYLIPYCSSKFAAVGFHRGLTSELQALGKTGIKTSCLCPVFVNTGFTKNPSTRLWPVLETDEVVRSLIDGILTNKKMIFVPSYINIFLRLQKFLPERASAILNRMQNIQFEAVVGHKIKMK

SMILES | IC50
COc1ccc(-c2nc3sc4c(O)cccc4c3c(=O)n2Cc2cnc(C)s2)c(C2CC2)c1 [Example 60] | < 100 nM
O=c1c2c(nc(-c3ccc(F)cc3C3CC3)n1CCCc1nc3ccccc3o1)sc1c(O)cccc12 [Example 86] | < 100 nM
CC(C)Oc1ccc(-c2nc3sc4c(O)cccc4c3c(=O)n2Cc2ccccc2)cc1 [Example 7] | > 10000 nM
COc1ccc(-c2nc3sc4c(O)cccc4c3c(=O)n2C2CC2)c(C2CC2)c1 [Example 54] | 100 to 1000 nM
O=c1c2c(nc(-c3ccc(F)cc3C3CC3)n1CCn1nccn1)sc1c(O)cccc12 [Example 79] | < 100 nM
COc1ccc(-c2nc3sc4c(O)cccc4c3c(=O)n2Cc2ccncc2)c(C2CC2)c1 [Example 10] | < 100 nM
COc1ccc(-c2nc3sc4c(O)cccc4c3c(=O)n2Cc2cnc(C)o2)c(C2CC2)c1 [Example 67] | < 100 nM
O=c1c2c(nc(-c3ccc(F)cc3C3CC3)n1Cc1cncs1)sc1c(O)cccc12 [Example 46] | < 100 nM
COc1ccc(-c2nc3sc4c(O)cccc4c3c(=O)n2Cc2cn[nH]c2)c(C2CC2)c1 [Example 14] | < 100 nM
COc1ccc(-c2nc3sc4c(O)cccc4c3c(=O)n2CCNCc2ccncc2)c(C2CC2)c1 [Example 21] | < 100 nM
O=c1c2c(nc(-c3ccc(F)cc3C3CC3)n1CCn1cnnn1)sc1c(O)cccc12 [Example 81] | < 100 nM
C=CCn1c(-c2ccc(OC)cc2C2CC2)nc2sc3c(O)cccc3c2c1=O [Example 65] | < 100 nM
Cc1ncc(Cn2c(-c3ccc(F)cc3C3CC3)nc3sc4c(O)cccc4c3c2=O)o1 [Example 75] | < 100 nM
COc1ccc(-c2nc3sc4c(O)cccc4c3c(=O)n2C/C=C/COc2ccncc2)c(C2CC2)c1 [Example 37] | < 100 nM
Cc1cc(Cn2c(-c3ccc(F)cc3C3CC3)nc3sc4c(O)cccc4c3c2=O)on1 [Example 73] | 1000 to 10000 nM
COc1ccc(-c2nc3sc4c(O)cccc4c3c(=O)n2CCN)c(C2CC2)c1 [Example 44] | 100 to 1000 nM
COc1ccc(-c2nc3sc4c(O)cccc4c3c(=O)n2CCNCc2nnn[nH]2)c(C2CC2)c1 [Example 34] | < 100 nM
